Source: patent US9157909B2, “Male reproductive health panel and uses thereof” (priority 2007, dated 2015)
Like-named read-outs stand apart in the source and are kept apart here.

Experiments:
human sperm [1] = tested on: human sperm
Experimental: (§1) In vitro oxidative stress exposure; human sperm from a fertile […] were exposed to increasing hydrogen peroxide (H2O2) concentrations (0, 10, 50 and 100 μM), and incubated at 37° C., for 15 min and 1 hr.
(§2) Sperm was isolated from the seminal plasma as previously described in Brown et al. 1995. The sperm pellet was resuspended in phosphate buffered saline (PBS), pH=7.4, and divided into 4 aliquots. Each aliquot (equal sperm concentrations) was incubated at 37° C. in PBS with H2O2 concentrations of 0, 10, 50, and 100 μM for 15 min and 1 hr. All aliquots were divided into 2 portions. One portion was used to determine LPO.
(§3) The remaining portion was centrifuged at 1500 g for 15 min at room temperature. The pellet was analyzed in the HSAA.
Sperm chromatin decondensation and nuclear recondensation were evaluated in sperm exposed to increasing concentrations of H2O2 for 15 min and 1 hr using the HSAA. Sperm were analyzed at different incubation times in the egg extract using the image analysis Methamorph software system. The sperm nuclear activation was scored in 5 categories: 1) full decondensation: sperm diameter 25-30 μm, 2) partial decondensation: sperm diameter<25 μm, 3) non-decondensed, 4) hyperdecondensed: sperm diameter>(25-30 μm), and full recondensation.

human sperm [2] = conditions: for sperm heavily labeled by ^3H-TTP incorporation: incubation not printed (15 min implied)
Experimental: FIG. 3: HSAA—The effect of oxidative stress on DNA synthesis. Pictorial representation of autoradiographs of control untreated sperm (A-E) and sperm exposed to 100 μM H2O2 for 1 hr (a-e) assayed in the HSAA in the presence of ^3H-TTP. All the pictures were photographed using bright microscopy 60× objective. […] All pictures were printed at the same magnification.
as §1, §2, §3

human sperm [3] = conditions: 50 and 100 μM H2O2 (15 min); 10, 50 and 100 μM H2O2 (1 hr)
Experimental: as §2

sperm [4] = conditions: comet assay, direct exposure of sperm; cited from earlier work
human sperm [5] = test: HSAA of sperm exposed to ROS from PMA-activated PMNL with or without Trolox; assay type: cell-based
Experimental: PMNLs were isolated from blood of healthy donors by density gradient centrifugation. Activation and the number of peroxidase-positive leukocytes were determined using the Endtz test. Sperm from fertile males were isolated using percoll gradients (40 and 80%). Sperm from the 80% fraction was divided into 6 aliquots: 1) control non-treated sperm, 2) sperm treated with ROS inducer phorbol-12 myristate-13 acetate (PMA), 3) non-treated sperm with non-treated PMNL, 4) sperm with PMA treated PMNL, 5) sperm with PMA treated PMNL plus Trolox 40 μM, and 6) non-treated sperm plus Trolox 40 μM. Following an incubation period, sperm were evaluated for (A) sperm activation events in the HSAA, evaluating sperm activation events (decondensation, DNA synthesis, and recondensation) at 15 min, and 2 hr, and (B) determining ROS levels via nitroblue of tetrazolium (NBT) and spectrophotometry.

sperm [6] = conditions: sperm exposed to hydroxylamine, analyzed in the HSAA; cited from earlier work
[7] = Trolox 40 μM with PMA treated PMNL (oxidative stress)

With OO [H2O2, hydrogen peroxide] the hyper-decondensed sperm (human sperm [1]; 10 μM H2O2, 2 and 3 hr incubation in egg extract (results combined)) was “No sperm were hyper-decondensed”, the “recondensation appearance (FIG. 3d, e)” value (human sperm [1]; 100 μM H2O2, 1 hr exposure, 2 and 3 hr incubation in egg extract) was “irregular recondensation” and the recondensed sperm (human sperm [1]; 10 and 50 μM H2O2, 15 min exposure, 15 min incubation in egg extract) was “No recondensed sperm were observed”. For the same compound, the non-decondensed sperm (human sperm [1]; other concentrations (50 and 100 μM H2O2), any exposure time point, 15 min incubation in egg extract) was “no sperm were non-decondensed”, the “^3H-TTP incorporation (autoradiography)” value (human sperm [2]; 10 μM H2O2, 15 min and 1 hr exposure, 2 and 3 hr incubations in egg extract) was “normal ^3H-TTP incorporation” and the “^3H-TTP incorporation (autoradiography)” value (human sperm [2]; 10 μM H2O2, 15 min and 1 hr exposure, 5 and 15 min incubations in egg extract) was “no incorporation of ^3H-TTP”. The “heavily labeled sperm (^3H-TTP)” value (human sperm [2]; 10 μM H2O2, 15 min and 1 hr exposures, 3 hr incubation in egg extract) was 98±2%, the “sperm positive for ^3H-TTP incorporation” value (human sperm [2]; 10 μM H2O2, 15 min and 1 hr exposures, incubation time not printed (15 min in egg extract implied)) was “No sperm were positive” and the “sperm positive for ^3H-TTP incorporation” value (human sperm [2]; 10 μM H2O2, 5 min incubation in egg extract per heading (sentence prints 15 min extract incubation)) was “No sperm were positive”. The “sperm heavily labeled by ^3H-TTP incorporation” value (shortened to “sperm heavily labeled”) (human sperm [2]; 50 μM H2O2, 15 min exposure) was 10±2%, the “sperm heavily labeled” value (human sperm [2]; 100 μM H2O2, 15 min exposure) was 50±5% and the “onset of DNA synthesis (autoradiograph, FIG. 3b)” value (human sperm [2]; 100 μM H2O2, 1 hr exposure, 5 min incubation in egg extract) was “early initiation of DNA synthesis”. The “onset of DNA synthesis (autoradiograph, FIG. 3c)” value (human sperm [2]; 100 μM H2O2, 1 hr exposure, 15 min incubation in egg extract) was “early initiation of DNA synthesis”, the “sperm heavily labeled” value (human sperm [2]; 100 μM H2O2, 1 hr exposure) was 45±9% and the “^3H-TTP incorporation (autoradiography)” value (human sperm [2]; 50 and 100 μM H2O2, 15 min and 1 hr exposure) was “abnormal ^3H-TTP incorporation”. The “LPO (amount of MDA and hydroxyalkenals), means compared to untreated control sperm” value (human sperm [3]) was “significantly different” and the “H2O2 concentration at which induction of DNA fragmentation was significant” value (sperm [4]) was 200 µM.

With Cc1c(C)c2c(c(C)c1O)CCC(C)(C(=O)O)O2 (stereo not shown) [Trolox, 6-Hydroxy-2,5,7,8-tetramethylchroman-. 2-carboxylic acid] the decondensation response (human sperm [5]; [7]) was “improved responses in decondensation”, the “early ^3H-TTP incorporation” value (human sperm [5]; [7]) was “no early ^3H-TTP incorporation” and the “sperm having recondensed chromatin” value (human sperm [5]; Trolox 40 μM with PMA treated PMNL, 2 hr time point, only 57% without Trolox) was 78%.

In the case of NO [hydroxylamine], the “onset of DNA synthesis” value (sperm [6]) is given as “early initiation of DNA synthesis” and the sperm decondensation response (sperm [6]) is given as “minimal decondensation”.
